Results as given in publication PMC7982674, “XMD-17-51 Inhibits DCLK1 Kinase and Prevents Lung Cancer Progression” (Frontiers in Pharmacology, 2021).

Molecular target: T1, Doublecortin-like kinase 1 (DCLK1) (Homo sapiens, UniProt O15075)
T1 construct: Purified kinase-active DCLK1 (cat. no., 02-139, Carna Biosciences)
T1 sequence (O15075 1-740): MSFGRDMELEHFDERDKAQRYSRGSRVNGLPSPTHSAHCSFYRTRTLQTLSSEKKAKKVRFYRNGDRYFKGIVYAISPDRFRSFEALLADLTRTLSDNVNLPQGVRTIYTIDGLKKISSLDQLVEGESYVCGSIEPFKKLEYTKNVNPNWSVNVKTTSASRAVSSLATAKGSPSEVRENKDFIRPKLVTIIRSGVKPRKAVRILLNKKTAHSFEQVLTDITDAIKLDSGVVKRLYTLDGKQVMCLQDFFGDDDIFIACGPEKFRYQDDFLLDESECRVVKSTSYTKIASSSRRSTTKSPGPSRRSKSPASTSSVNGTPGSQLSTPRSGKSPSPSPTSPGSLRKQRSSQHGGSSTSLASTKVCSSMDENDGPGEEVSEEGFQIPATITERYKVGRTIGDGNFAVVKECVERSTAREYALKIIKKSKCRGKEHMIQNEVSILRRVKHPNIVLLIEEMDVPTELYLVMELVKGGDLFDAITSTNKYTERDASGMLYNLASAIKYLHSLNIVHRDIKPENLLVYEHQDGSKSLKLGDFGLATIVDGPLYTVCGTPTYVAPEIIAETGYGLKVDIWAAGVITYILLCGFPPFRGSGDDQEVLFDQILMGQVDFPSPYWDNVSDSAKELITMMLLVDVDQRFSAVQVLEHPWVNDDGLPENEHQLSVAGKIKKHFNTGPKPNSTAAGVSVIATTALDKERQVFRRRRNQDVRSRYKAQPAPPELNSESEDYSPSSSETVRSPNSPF
Experiment: cell-free kinase assay with ULight-CREBtide peptide substrate, […] ATP (Envision readout)
Type: biochemical

CN1C(=O)c2ccccc2N(C)c2nc(Nc3cnn(C4CCNCC4)c3)ncc21 [XMD-17-51]
IC50: 14.6 nM
